Assays:
[1] = molecular target: T1, PcakA.Ant (Comamonas antarctica, UniProt A0A6N1X255); test: uptake-coupled PcaV-sfGFP biosensor dose response in P. putida KT2440 delta-pcaK; format: cell-based
T1 construct: gene HUK68_11000; full-length transporter expressed in Pseudomonas putida KT2440 delta-pcaK with PcaV-sfGFP reporter plasmid; 4,5-cleavage pathway operon
T1 sequence (A0A6N1X255 1-458): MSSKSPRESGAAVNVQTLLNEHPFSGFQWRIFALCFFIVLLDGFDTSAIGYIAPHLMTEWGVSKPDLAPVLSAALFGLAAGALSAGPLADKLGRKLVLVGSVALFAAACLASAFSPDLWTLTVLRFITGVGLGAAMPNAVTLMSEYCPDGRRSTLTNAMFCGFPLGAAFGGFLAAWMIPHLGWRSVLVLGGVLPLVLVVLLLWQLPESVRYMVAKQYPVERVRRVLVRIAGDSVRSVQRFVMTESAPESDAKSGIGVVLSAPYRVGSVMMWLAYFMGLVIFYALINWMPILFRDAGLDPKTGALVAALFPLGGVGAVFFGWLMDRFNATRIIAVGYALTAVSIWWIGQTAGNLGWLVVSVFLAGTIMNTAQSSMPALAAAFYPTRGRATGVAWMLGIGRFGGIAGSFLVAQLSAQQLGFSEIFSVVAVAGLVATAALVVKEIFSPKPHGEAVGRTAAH
Description: uptake-coupled PcaV-sfGFP biosensor dose response in P. putida KT2440 delta-pcaK on PcakA.Ant

[2] = system: T2, PcaKB.Mas; test: as above; format: cell-based, Bacillus massiliglaciei; conditions: whole-cell transporter-biosensor EC50 (reflects transporter plus PcaV sensor); LB, 3 h, 0.01-5 mM PCA
T2 construct: gene pcaK; full-length transporter expressed in Pseudomonas putida KT2440 delta-pcaK with PcaV-sfGFP reporter plasmid; 2,3-cleavage pathway operon
Description: uptake-coupled PcaV-sfGFP biosensor dose response in P. putida KT2440 delta-pcaK on PcaKB.Mas

[3] = molecular target: T3, PcaKN.Ani (Neisseria animalis, UniProt A0A5P3MSQ9); test: as above; format: cell-based
T3 construct: gene D0T90_09335; full-length transporter expressed in Pseudomonas putida KT2440 delta-pcaK with PcaV-sfGFP reporter plasmid; 4,5-cleavage pathway operon
Description: uptake-coupled PcaV-sfGFP biosensor dose response in P. putida KT2440 delta-pcaK on PcaKN.Ani

[4] = molecular target: T4, PcaKP.Put (Pseudomonas putida, UniProt Q51955); test: as above; format: cell-based
T4 construct: gene pcaK; full-length transporter expressed in Pseudomonas putida KT2440 delta-pcaK with PcaV-sfGFP reporter plasmid
T4 sequence (Q51955 1-448): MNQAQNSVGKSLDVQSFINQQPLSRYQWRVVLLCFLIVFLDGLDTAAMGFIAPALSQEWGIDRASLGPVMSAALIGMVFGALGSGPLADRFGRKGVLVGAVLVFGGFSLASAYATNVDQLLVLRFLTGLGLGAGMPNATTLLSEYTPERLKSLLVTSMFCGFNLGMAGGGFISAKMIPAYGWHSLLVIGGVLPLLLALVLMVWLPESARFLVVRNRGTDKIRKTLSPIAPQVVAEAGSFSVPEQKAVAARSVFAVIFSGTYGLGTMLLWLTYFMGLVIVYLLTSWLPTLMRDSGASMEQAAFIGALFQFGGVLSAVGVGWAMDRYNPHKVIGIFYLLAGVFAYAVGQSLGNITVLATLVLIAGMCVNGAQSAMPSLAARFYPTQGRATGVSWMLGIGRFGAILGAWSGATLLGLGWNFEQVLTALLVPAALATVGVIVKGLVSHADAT
Description: uptake-coupled PcaV-sfGFP biosensor dose response in P. putida KT2440 delta-pcaK on PcaKP.Put

[5] = system: T5, TphKP.Um; test: uptake-coupled TphR-sfGFP biosensor dose response in P. putida KT2440; format: cell-based, Pseudomonas umsongensis; conditions: whole-cell transporter-biosensor EC50 (reflects transporter plus TphR sensor); LB, 16 h, 0.005-1 mM TPA
T5 construct: gene tphK; full-length transporter expressed in Pseudomonas putida KT2440 with TphR-sfGFP reporter plasmid
Description: uptake-coupled TphR-sfGFP biosensor dose response in P. putida KT2440 on TphKP.Um

[6] = molecular target: T6, TphKP.Man (Pseudomonas mandelii, UniProt A0A024E7Y9); test: as above; format: cell-based
T6 construct: gene tpaK; full-length transporter expressed in Pseudomonas putida KT2440 with TphR-sfGFP reporter plasmid
Description: uptake-coupled TphR-sfGFP biosensor dose response in P. putida KT2440 on TphKP.Man

[7] = system: T7, TphKR.Pyr; test: as above; format: cell-based, Rhodococcus pyridinivorans; conditions: whole-cell transporter-biosensor EC50 (reflects transporter plus TphR sensor); LB, 16 h, 0.005-1 mM TPA
T7 construct: gene tphK; full-length transporter expressed in Pseudomonas putida KT2440 with TphR-sfGFP reporter plasmid
Description: uptake-coupled TphR-sfGFP biosensor dose response in P. putida KT2440 on TphKR.Pyr

[8] = system: T8, TphKB.Pac; test: as above; format: cell-based, Bradyrhizobium pachyrhizi; conditions: whole-cell transporter-biosensor EC50 (reflects transporter plus TphR sensor); LB, 16 h, 0.005-1 mM TPA
T8 construct: gene tphK; full-length transporter expressed in Pseudomonas putida KT2440 with TphR-sfGFP reporter plasmid
Description: uptake-coupled TphR-sfGFP biosensor dose response in P. putida KT2440 on TphKB.Pac

[9] = system: T9, TphKS.Hor; test: as above; format: cell-based, Saccharopolyspora hordei; conditions: whole-cell transporter-biosensor EC50 (reflects transporter plus TphR sensor); LB, 16 h, 0.005-1 mM TPA
T9 construct: gene tphK; full-length transporter expressed in Pseudomonas putida KT2440 with TphR-sfGFP reporter plasmid
Description: uptake-coupled TphR-sfGFP biosensor dose response in P. putida KT2440 on TphKS.Hor

[10] = system: T10, TphKS.Nap; test: as above; format: cell-based, Sphingobium naphthae; conditions: whole-cell transporter-biosensor EC50 (reflects transporter plus TphR sensor); LB, 16 h, 0.005-1 mM TPA
T10 construct: gene tphK; full-length transporter expressed in Pseudomonas putida KT2440 with TphR-sfGFP reporter plasmid
Description: uptake-coupled TphR-sfGFP biosensor dose response in P. putida KT2440 on TphKS.Nap

[11] = molecular target: T11, TphKR.Op (Rhodococcus opacus, UniProt A0A1B1KG70); test: as above; format: cell-based
T11 construct: gene tpaK; full-length transporter expressed in Pseudomonas putida KT2440 with TphR-sfGFP reporter plasmid
T11 sequence (A0A1B1KG70 1-459): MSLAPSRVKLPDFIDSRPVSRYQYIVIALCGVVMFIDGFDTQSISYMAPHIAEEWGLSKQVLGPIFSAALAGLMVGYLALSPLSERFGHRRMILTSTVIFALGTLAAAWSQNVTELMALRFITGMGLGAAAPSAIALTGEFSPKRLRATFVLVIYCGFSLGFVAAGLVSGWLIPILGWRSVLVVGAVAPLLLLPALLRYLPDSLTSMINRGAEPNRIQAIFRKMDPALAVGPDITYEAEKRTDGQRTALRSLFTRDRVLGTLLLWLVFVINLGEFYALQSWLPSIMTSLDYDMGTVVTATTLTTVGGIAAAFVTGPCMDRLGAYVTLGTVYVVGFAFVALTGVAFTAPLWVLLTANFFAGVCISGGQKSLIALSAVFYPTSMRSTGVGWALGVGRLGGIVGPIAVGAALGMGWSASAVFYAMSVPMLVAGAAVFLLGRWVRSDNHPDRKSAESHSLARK
Description: uptake-coupled TphR-sfGFP biosensor dose response in P. putida KT2440 on TphKR.Op

T3 sequence (A0A5P3MSQ9 entry or part of it): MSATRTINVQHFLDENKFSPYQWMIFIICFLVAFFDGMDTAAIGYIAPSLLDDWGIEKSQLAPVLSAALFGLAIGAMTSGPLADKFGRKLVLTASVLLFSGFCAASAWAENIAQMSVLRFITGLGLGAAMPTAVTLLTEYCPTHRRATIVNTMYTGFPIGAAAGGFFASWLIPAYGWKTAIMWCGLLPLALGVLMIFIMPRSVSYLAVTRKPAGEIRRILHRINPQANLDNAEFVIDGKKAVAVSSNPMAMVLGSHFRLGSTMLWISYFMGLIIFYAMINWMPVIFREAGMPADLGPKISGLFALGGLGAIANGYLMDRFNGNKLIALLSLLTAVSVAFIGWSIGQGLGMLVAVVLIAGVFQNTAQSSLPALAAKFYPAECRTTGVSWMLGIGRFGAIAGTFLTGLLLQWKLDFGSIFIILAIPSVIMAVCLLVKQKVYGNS

Row | Compound | EC50 [1] | EC50 [2] | EC50 [3] | EC50 [4] | EC50 [5] | EC50 [6] | EC50 [7] | EC50 [8] | EC50 [9] | EC50 [10] | EC50 [11]
1 | O=C(O)c1ccc(O)c(O)c1 [P2, protocatechuic acid] | 735 µM | 1710 µM | 847 µM | 2050 µM | – | – | – | – | – | – | –
2 | O=C(O)c1ccc(C(=O)O)cc1 [T3, terephthalic acid] | – | – | – | – | 19.1 µM | 14.4 µM | 10.7 µM | 17.1 µM | 39.6 µM | 1.96 µM | 79.2 µM

Reference: PMC12577307, “Genetically encoded biosensor enabled mining, characterisation and engineering of aromatic acid MFS transporters” (Journal of Biological Engineering, 2025)
